Test results published in patent US20240139188A1, “Arylamide Compounds For Treatment And Prevention Of Fungal Infections” (priority 2022, published 2024).
Converted amounts (≈) assume the structure as drawn. Where two headings read alike, the source gives them in different places.

Assays:
[1] = test system: A. fumigatus conidia infecting A549 pulmonary cells; test: Killing assay in infected A549 cells; assay type: cell-based, Aspergillus fumigatus; conditions: monotherapy
Experimental: Killing assay: The type II pneumocyte cell line A549 was cultured using DMEM (ThermoFischer Scientific, Paisley. […] After 24 hours of incubation in 5% CO2 the culture media was removed, and 2 ml of sterile water was added to the wells. A P1000 tip was then used to scrape away the cell monolayer and the cell suspension was collected. This suspension was then diluted 1:1000 and 100 μl was plated on Sabouraud Dextrose Agar Media before the plates were incubated a 37° C. overnight. The numbers of CFUs were determined after 24 hours of growth. A volume of 50 μl of the inoculum adjusted to 103/ml was also plated on SAB agar to correct CFU counts. The CFU percentage for each sample was calculated and the results were plotted using Graphpad Prism (GraphPad Software, Inc., La Jolla, CA, USA).

C. neoformans [2] = test: MIC for yeasts, CLSI M27-A3; assay type: cell-based, Cryptococcus neoformans
C. albicans [3] = test: BRI+CAS against yeasts, XTT metabolic activity; conditions: absence of BRI
C. neoformans [4] = test: BRI+CAS against yeasts, XTT metabolic activity; conditions: CAS alone, 48 hours
[5] = test system: critical fungal pathogens; test: Checkerboard drug interaction testing (FICi), BRI with conventional antifungals; assay type: cell-based; conditions: organisms tested, with the exception of Aspergillus
[6] = test system: Mucorales Unspeciated zygomycete; test: In vitro susceptibility (MIC), macrobroth dilution; assay type: cell-based; conditions: Mucorales Unspeciated zygomycete 07-140
Exserohilum species = test: In vitro susceptibility (MIC), macrobroth dilution; assay type: cell-based; conditions: Exserohilum species 19-48
Aspergillus lentulus = test: In vitro susceptibility (MIC), macrobroth dilution; assay type: cell-based; conditions: Aspergillus lentulus 14-39
Mucorales Mucor species = test: In vitro susceptibility (MIC), macrobroth dilution; assay type: cell-based; conditions: Mucor
Aspergillus terreus = test: In vitro susceptibility (MIC), macrobroth dilution; assay type: cell-based; conditions: Aspergillus terreus 12-70
Aspergillus fumigatus = test: In vitro susceptibility (MIC), macrobroth dilution; assay type: cell-based; conditions: for MIC50 / MIC: Aspergillus fumigatus
Candida auris = test: In vitro susceptibility (MIC), macrobroth dilution; assay type: cell-based; conditions: Candidozyma auris, Candida auris 20-253
C. auris = test: BRI+CAS against yeasts, colony forming units; conditions: plating after 48 hours
Experimental: (§1) Combination of Brilacidin and caspofungin against yeasts: For measuring the effect of the combination BRI+CAS against yeast fungal pathogens, two methods were used: (i) metabolic activity by XTT-assay and (ii) colony forming units (CFUs). For the first method, C. neoformans, C. albicans, and C. auris 10^4 cells were inoculated in RPMI-1640 supplemented with CAS 0 to 32 μg/ml (for C. neoformans) and 0 to 1 μg/ml (for Candida spp.) or the same concentrations of CAS combined with BRI 0.625 μM (for C. neoformans), BRI 20 μM (for C. albicans), and BRI 10 μM (for C. auris). […] XTT-assays were also used for C. albicans caspofungin resistant strains but with CAS 0.5 μg/ml combined with BRI 5, 10 or 20 μM. The same experimental design was used for the CFUs determination, except that after 48 hours the cells present in the wells were plated on YPD (yeast extract 10g, peptone 20g, dextrose 20g, agar 20 g, water 1000 mL) and the plates were incubated at 30° C. for 24-48 hours for determining the survival percentage.

Aspergillus niger = test: In vitro susceptibility (MIC), macrobroth dilution; assay type: cell-based; conditions: Aspergillus niger 22-4
Lomentospora prolificans = test: In vitro susceptibility (MIC), macrobroth dilution; assay type: cell-based
Candida lusitaniae = test: In vitro susceptibility (MIC), macrobroth dilution; assay type: cell-based; conditions: Clavispora lusitaniae, Candida lusitaniae 22-16
Torulopsis glabrata = test: In vitro susceptibility (MIC), macrobroth dilution; assay type: cell-based; conditions: Nakaseomyces glabratus, Torulopsis glabrata 22-21
A. fumigatus = test: Alamar blue metabolic activity assay; assay type: cell-based, Aspergillus fumigatus; conditions: ΔmpkA mutant, BRI 20 μM, 48 hours
Candida albicans = test: In vitro susceptibility (MIC), macrobroth dilution; assay type: cell-based; conditions: Candida albicans, C. albicans 5, drug alone
C. albicans [7] = test: BRI+CAS against yeasts, colony forming units; conditions: plating after 48 hours
Experimental: as §1

Cryptococcus neoformans = test: In vitro susceptibility (MIC), macrobroth dilution; assay type: cell-based; conditions: Cryptococcus neoformans, C. neoformans CN9759, drug alone
Candida krusei = test: In vitro susceptibility (MIC), macrobroth dilution; assay type: cell-based; conditions: Pichia kudriavzevii, Candida krusei 03-287 (fluconazole-resistant)
Acremonium species = test: In vitro susceptibility (MIC), macrobroth dilution; assay type: cell-based; conditions: Acremonium species 18-51
[8] = read-out: 50% Inhibition BRI (MIC50)
[9] = read-out: 100% Inhibition BRI (MIC100)
[10] = lowest concentration causing 50% decrease in growth vs untreated control, read-out: MIC50
[11] = lowest concentration without growth, read-out: MIC100

CC[C@H](C)C[C@H](C)CCCCCCCCC(=O)N[C@H]1C[C@@H](O)[C@@H](NCCN)NC(=O)[C@@H]2[C@@H](O)CCN2C(=O)[C@H]([C@H](O)CCN)NC(=O)[C@H]([C@H](O)[C@@H](O)c2ccc(O)cc2)NC(=O)[C@@H]2C[C@@H](O)CN2C(=O)[C@H]([C@@H](C)O)NC1=O [CAS, caspofungin]
A. fumigatus killing [1]: 25% | MIC (C. neoformans [2]; Cryptococcus neoformans H99, read-out: MIC CAS): 32 µg/mL | CAS concentration for complete inhibition of metabolic activity (XTT) and survival (CFUs) (C. albicans [3]): ~0.125 µg/mL | CAS concentration that completely inhibits metabolic activity (XTT) (C. neoformans [4]): 32 µg/mL

N=C(N)NCCCCC(=O)Nc1cc(C(F)(F)F)cc(NC(=O)c2cc(C(=O)Nc3cc(C(F)(F)F)cc(NC(=O)CCCCNC(=N)N)c3OC3CCNC3)ncn2)c1OC1CCNC1 (stereo not drawn) [BRI, brilacidin]
in vitro activity of BRI alone [5]: favorable in vitro activity | MIC50 [6, 8]: 2 µg/mL (≈ 2.13 µM) | MIC [6, 9]: 16 µg/mL (≈ 17.1 µM) | MIC50 (Exserohilum species; [8]): 1 µg/mL (≈ 1.07 µM) | MIC (Exserohilum species; [9]): 16 µg/mL (≈ 17.1 µM) | MIC50 (Aspergillus lentulus; [8]): 32 µg/mL (≈ 34.2 µM) | MIC (Aspergillus lentulus; [9]): > 64 µg/mL | MIC50 (Mucorales Mucor species; Mucor sp. 13-127, drug alone, lowest concentration causing 50% decrease in growth vs untreated control, read-out: MIC50): 4 µg/mL (≈ 4.27 µM) | MIC (Mucorales Mucor species; Mucor sp. 13-127, drug alone, lowest concentration without growth, read-out: MIC100): 64 µg/mL (≈ 68.3 µM) | MIC (Mucorales Mucor species; Mucorales Mucor species, read-out: 100% Inhibition BRI (MIC100)): 32 µg/mL (≈ 34.2 µM) | MIC50 (Aspergillus terreus; [8]): > 64 µg/mL | MIC (Aspergillus terreus; [9]): > 64 µg/mL | MIC (C. neoformans [2]; Cryptococcus neoformans H99, read-out: MIC BRI): 2.5 µM | MIC (C. neoformans [2]; Cryptococcus neoformans, C. neoformans, read-out: MIC BRI): 2.5 µM | MIC100 (Aspergillus fumigatus; A. fumigatus 21-23, drug alone, lowest concentration without growth): >64 µg/mL | MIC50 (Aspergillus fumigatus; A. fumigatus 10AF, drug alone, lowest concentration causing 50% decrease in growth vs untreated control, read-out: MIC50): 64 µg/mL (≈ 68.3 µM) | MIC50 (Aspergillus fumigatus; A. fumigatus 21-23, drug alone, lowest concentration causing 50% decrease in growth vs untreated control, read-out: MIC50): 64 µg/mL (≈ 68.3 µM) | MIC (Aspergillus fumigatus; A. fumigatus 10AF, drug alone, lowest concentration without growth, read-out: MIC100): > 64 µg/mL | MIC50 (Aspergillus fumigatus; [8]): > 64 µg/mL | MIC (Aspergillus fumigatus; [9]): > 64 µg/mL | MIC50 (Candida auris; [8]): > 64 µg/mL | MIC (Candida auris; [9]): > 64 µg/mL | Mechanism (C. auris; Candida auris 467/2015): Fungicidal | Mechanism (C. auris; Candida auris 468/2015): Fungicidal | Mechanism (C. auris; Candida auris 469/2015): Fungicidal | Mechanism (C. auris; Candida auris 470/2015): Fungicidal | Mechanism (C. auris; Candida auris 471/2015): Fungicidal | MIC50 (Aspergillus niger; [8]): 8 µg/mL (≈ 8.54 µM) | MIC (Aspergillus niger; [9]): 16 µg/mL (≈ 17.1 µM) | MIC50 (Lomentospora prolificans; [8]): 4 µg/mL (≈ 4.27 µM) | MIC (Lomentospora prolificans; [9]): 8 µg/mL (≈ 8.54 µM) | MIC50 (Candida lusitaniae; [8]): 8 µg/mL (≈ 8.54 µM) | MIC (Candida lusitaniae; [9]): 8 µg/mL (≈ 8.54 µM) | MIC50 (Torulopsis glabrata; [8]): 64 µg/mL (≈ 68.3 µM) | MIC (Torulopsis glabrata; [9]): > 64 µg/mL | metabolic activity (Alamar blue) in presence vs absence of BRI (A. fumigatus): significantly decreased metabolic activity | MIC50 (Candida albicans; [10]): 4 µg/mL (≈ 4.27 µM) | MIC (Candida albicans; [11]): > 64 µg/mL | Mechanism (C. albicans [7]; Candida albicans DPL1006 CAS^R): Fungicidal | Mechanism (C. albicans [7]; Candida albicans DPL1007 CAS^R): Fungicidal | Mechanism (C. albicans [7]; Candida albicans DPL1009 CAS^R): Fungicidal | Mechanism (C. albicans [7]; Candida albicans DPL1010 CAS^R): Fungicidal | Mechanism (C. albicans [7]; Candida albicans DPL1011 CAS^R): Fungicidal | Mechanism (C. albicans [7]; Candida albicans SC5314): Fungicidal | MIC50 (Cryptococcus neoformans; [10]): 1 µg/mL (≈ 1.07 µM) | MIC (Cryptococcus neoformans; [11]): 8 µg/mL (≈ 8.54 µM) | MIC50 (Candida krusei; [8]): 8 µg/mL (≈ 8.54 µM) | MIC (Candida krusei; [9]): 16 µg/mL (≈ 17.1 µM) | MIC50 (Acremonium species; [8]): 4 µg/mL (≈ 4.27 µM) | MIC (Acremonium species; [9]): > 64 µg/mL
